Data as given in ChEMBL document CHEMBL1201862, “PubChem BioAssay data set” (2004).
Calls of active or inactive are those of the source.

Key:
Format in all cases: functional
[1] = target: Dual specificity protein kinase CLK2 (Homo sapiens, UniProt P49760)
[2] = target: Dual specificity mitogen-activated protein kinase kinase 1 (Homo sapiens, UniProt Q02750); experiment: Navigating the Kinome. Panel member name: MAP2K1
[3] = target: T1, Tyrosine-protein kinase receptor TYRO3 (Homo sapiens, UniProt Q06418);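 also: TYRO3 value obtained as one member of a kinome-wide profiling panel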
T1 sequence (Q06418 whole entry): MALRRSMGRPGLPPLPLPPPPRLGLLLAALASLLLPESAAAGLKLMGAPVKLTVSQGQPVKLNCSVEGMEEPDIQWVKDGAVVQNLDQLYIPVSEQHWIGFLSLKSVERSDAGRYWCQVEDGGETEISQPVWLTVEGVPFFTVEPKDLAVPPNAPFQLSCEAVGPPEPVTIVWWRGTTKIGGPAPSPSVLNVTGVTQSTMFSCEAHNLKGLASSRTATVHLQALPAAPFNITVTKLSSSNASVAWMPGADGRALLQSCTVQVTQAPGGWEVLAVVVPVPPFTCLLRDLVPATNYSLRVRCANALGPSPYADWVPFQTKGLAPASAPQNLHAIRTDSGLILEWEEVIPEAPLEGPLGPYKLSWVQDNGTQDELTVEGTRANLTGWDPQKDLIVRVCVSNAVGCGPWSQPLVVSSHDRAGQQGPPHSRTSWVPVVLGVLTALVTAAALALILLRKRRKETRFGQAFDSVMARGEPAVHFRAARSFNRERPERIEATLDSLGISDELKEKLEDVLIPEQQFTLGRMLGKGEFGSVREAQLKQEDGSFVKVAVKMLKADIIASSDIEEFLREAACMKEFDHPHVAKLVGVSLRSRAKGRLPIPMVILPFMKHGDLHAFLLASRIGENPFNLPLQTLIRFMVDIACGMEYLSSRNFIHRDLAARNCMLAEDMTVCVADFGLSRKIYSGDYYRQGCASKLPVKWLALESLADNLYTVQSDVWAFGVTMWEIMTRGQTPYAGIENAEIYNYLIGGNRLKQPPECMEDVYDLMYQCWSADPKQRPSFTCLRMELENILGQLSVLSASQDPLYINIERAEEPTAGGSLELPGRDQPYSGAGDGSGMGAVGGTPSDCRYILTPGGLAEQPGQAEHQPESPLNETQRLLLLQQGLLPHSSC

[4] = target: Death-associated protein kinase 3 (Homo sapiens, UniProt O43293);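 also: measured as one member of a kinome-wide profiling panel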
[5] = target: Mitogen-activated protein kinase 8 (Homo sapiens, UniProt P45983);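 also: value comes from one member of a kinome-wide kinase profiling panel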
[6] = target: Mitogen-activated protein kinase 9 (Homo sapiens, UniProt P45984);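 also: value from a kinome panel profiling assay, MAPK9 panel entry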
LIM domain kinase 1 = LIM domain kinase 1 (Homo sapiens, UniProt P53667); experiment: Navigating the Kinome. Panel member name: LIMK1
[7] = target: T2, Serine/threonine-protein kinase TAO1 (Homo sapiens, UniProt Q7L7X3)
T2 sequence (Q7L7X3 whole entry): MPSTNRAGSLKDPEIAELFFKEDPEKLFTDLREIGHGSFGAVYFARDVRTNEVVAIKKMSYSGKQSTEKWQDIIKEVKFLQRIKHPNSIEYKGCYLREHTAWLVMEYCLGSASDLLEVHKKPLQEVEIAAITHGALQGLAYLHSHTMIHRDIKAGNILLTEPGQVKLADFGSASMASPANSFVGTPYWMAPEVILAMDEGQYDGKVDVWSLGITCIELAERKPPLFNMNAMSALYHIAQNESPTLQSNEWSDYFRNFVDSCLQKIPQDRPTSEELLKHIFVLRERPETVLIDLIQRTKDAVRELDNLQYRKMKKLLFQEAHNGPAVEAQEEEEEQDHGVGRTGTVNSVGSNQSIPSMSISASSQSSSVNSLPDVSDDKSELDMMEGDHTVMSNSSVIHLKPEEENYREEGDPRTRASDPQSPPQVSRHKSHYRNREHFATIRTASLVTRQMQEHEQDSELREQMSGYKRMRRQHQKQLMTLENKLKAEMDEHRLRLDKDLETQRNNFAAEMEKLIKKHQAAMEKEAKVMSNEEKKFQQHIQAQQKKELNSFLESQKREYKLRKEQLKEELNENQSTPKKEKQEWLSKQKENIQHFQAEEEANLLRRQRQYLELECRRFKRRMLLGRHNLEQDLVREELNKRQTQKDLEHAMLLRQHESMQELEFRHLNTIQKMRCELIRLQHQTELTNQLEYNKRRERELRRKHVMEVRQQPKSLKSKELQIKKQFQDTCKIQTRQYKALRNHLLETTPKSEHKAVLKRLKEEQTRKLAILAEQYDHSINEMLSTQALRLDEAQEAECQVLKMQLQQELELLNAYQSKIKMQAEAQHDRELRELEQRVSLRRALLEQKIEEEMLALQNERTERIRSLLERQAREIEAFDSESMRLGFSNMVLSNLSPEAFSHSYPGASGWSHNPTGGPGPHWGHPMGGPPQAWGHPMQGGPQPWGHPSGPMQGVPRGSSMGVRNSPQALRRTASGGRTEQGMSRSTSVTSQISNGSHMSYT

[8] = target: High affinity nerve growth factor receptor (Homo sapiens, UniProt P04629);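 also: NTRK1 tested as one member of a kinome-wide profiling panel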
Activated CDC42 kinase 1 = Activated CDC42 kinase 1 (Homo sapiens, UniProt Q07912); experiment: Navigating the Kinome. Panel member name: ACK1
[9] = target: Leucine-rich repeat serine/threonine-protein kinase 2 (Homo sapiens, UniProt Q5S007);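 also: value from a broad kinome-wide panel profiling study in which LRRK2 was one of the kinases tested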
[10] = target: Tyrosine-protein kinase Fyn (Homo sapiens, UniProt P06241)
[11] = target: Dual specificity protein kinase CLK4 (Homo sapiens, UniProt Q9HAZ1)
[12] = target: Macrophage-stimulating protein receptor (Homo sapiens, UniProt Q04912); experiment: Navigating the Kinome. Panel member name: MST1R
[13] = target: Calcium/calmodulin-dependent protein kinase type II subunit alpha (Homo sapiens, UniProt Q9UQM7); experiment: Navigating the Kinome. Panel member name: CAMK2A
Sequence of Calcium/calmodulin-dependent protein kinase type II subunit alpha (Q9UQM7 whole entry): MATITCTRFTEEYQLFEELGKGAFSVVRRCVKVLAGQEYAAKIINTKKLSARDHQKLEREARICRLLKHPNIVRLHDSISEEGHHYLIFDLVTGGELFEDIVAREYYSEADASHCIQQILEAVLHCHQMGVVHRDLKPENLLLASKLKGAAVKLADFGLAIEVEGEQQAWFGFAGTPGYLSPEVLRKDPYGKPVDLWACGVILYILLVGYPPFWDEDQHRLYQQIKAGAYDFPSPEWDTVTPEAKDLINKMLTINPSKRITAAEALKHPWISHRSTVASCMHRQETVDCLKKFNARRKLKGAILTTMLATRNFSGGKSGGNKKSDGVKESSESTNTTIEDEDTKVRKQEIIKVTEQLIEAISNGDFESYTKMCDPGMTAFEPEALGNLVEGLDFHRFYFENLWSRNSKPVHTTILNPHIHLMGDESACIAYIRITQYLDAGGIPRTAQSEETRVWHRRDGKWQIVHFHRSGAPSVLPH

Sequence of Activated CDC42 kinase 1 (Q07912 whole entry): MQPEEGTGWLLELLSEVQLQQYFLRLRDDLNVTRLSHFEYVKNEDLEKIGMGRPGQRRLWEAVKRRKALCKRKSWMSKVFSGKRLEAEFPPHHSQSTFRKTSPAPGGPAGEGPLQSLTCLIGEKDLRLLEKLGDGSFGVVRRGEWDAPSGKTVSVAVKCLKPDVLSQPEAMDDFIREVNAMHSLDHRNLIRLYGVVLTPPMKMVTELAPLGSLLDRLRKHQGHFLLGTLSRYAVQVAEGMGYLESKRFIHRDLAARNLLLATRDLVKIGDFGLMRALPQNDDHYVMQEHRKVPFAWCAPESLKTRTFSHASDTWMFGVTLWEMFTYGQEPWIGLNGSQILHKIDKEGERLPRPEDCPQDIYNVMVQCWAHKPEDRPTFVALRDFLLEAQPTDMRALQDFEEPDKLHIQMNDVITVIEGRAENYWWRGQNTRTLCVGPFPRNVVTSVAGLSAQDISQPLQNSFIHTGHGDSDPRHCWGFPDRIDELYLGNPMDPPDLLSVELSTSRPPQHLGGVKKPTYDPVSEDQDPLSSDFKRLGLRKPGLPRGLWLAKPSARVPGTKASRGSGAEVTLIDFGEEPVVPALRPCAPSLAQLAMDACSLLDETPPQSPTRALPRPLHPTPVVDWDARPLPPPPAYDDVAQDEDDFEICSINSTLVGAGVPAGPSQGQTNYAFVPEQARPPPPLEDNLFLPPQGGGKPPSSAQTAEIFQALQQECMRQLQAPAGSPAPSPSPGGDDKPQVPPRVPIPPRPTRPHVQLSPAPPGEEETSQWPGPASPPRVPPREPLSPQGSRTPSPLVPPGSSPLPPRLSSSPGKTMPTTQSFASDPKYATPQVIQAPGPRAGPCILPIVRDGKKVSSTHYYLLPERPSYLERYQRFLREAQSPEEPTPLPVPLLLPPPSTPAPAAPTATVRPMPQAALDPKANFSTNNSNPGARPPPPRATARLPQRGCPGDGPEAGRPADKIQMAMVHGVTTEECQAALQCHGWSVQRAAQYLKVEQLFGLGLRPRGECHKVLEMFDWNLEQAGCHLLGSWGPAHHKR
Sequence of Dual specificity protein kinase CLK4 (Q9HAZ1 whole entry): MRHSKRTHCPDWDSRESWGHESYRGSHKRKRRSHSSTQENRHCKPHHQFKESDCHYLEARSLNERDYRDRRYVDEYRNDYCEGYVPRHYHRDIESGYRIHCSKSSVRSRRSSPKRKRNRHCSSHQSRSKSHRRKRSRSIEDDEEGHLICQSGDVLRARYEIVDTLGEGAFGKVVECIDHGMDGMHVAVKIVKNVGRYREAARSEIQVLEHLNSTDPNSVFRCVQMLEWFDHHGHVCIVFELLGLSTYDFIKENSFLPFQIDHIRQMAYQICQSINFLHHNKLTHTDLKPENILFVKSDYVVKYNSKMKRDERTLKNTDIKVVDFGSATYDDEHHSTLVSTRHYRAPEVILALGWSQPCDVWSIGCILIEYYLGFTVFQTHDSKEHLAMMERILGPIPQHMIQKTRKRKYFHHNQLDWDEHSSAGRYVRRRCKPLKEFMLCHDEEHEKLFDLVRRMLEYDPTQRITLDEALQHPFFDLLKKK
Sequence of Leucine-rich repeat serine/threonine-protein kinase 2 (Q5S007 whole entry): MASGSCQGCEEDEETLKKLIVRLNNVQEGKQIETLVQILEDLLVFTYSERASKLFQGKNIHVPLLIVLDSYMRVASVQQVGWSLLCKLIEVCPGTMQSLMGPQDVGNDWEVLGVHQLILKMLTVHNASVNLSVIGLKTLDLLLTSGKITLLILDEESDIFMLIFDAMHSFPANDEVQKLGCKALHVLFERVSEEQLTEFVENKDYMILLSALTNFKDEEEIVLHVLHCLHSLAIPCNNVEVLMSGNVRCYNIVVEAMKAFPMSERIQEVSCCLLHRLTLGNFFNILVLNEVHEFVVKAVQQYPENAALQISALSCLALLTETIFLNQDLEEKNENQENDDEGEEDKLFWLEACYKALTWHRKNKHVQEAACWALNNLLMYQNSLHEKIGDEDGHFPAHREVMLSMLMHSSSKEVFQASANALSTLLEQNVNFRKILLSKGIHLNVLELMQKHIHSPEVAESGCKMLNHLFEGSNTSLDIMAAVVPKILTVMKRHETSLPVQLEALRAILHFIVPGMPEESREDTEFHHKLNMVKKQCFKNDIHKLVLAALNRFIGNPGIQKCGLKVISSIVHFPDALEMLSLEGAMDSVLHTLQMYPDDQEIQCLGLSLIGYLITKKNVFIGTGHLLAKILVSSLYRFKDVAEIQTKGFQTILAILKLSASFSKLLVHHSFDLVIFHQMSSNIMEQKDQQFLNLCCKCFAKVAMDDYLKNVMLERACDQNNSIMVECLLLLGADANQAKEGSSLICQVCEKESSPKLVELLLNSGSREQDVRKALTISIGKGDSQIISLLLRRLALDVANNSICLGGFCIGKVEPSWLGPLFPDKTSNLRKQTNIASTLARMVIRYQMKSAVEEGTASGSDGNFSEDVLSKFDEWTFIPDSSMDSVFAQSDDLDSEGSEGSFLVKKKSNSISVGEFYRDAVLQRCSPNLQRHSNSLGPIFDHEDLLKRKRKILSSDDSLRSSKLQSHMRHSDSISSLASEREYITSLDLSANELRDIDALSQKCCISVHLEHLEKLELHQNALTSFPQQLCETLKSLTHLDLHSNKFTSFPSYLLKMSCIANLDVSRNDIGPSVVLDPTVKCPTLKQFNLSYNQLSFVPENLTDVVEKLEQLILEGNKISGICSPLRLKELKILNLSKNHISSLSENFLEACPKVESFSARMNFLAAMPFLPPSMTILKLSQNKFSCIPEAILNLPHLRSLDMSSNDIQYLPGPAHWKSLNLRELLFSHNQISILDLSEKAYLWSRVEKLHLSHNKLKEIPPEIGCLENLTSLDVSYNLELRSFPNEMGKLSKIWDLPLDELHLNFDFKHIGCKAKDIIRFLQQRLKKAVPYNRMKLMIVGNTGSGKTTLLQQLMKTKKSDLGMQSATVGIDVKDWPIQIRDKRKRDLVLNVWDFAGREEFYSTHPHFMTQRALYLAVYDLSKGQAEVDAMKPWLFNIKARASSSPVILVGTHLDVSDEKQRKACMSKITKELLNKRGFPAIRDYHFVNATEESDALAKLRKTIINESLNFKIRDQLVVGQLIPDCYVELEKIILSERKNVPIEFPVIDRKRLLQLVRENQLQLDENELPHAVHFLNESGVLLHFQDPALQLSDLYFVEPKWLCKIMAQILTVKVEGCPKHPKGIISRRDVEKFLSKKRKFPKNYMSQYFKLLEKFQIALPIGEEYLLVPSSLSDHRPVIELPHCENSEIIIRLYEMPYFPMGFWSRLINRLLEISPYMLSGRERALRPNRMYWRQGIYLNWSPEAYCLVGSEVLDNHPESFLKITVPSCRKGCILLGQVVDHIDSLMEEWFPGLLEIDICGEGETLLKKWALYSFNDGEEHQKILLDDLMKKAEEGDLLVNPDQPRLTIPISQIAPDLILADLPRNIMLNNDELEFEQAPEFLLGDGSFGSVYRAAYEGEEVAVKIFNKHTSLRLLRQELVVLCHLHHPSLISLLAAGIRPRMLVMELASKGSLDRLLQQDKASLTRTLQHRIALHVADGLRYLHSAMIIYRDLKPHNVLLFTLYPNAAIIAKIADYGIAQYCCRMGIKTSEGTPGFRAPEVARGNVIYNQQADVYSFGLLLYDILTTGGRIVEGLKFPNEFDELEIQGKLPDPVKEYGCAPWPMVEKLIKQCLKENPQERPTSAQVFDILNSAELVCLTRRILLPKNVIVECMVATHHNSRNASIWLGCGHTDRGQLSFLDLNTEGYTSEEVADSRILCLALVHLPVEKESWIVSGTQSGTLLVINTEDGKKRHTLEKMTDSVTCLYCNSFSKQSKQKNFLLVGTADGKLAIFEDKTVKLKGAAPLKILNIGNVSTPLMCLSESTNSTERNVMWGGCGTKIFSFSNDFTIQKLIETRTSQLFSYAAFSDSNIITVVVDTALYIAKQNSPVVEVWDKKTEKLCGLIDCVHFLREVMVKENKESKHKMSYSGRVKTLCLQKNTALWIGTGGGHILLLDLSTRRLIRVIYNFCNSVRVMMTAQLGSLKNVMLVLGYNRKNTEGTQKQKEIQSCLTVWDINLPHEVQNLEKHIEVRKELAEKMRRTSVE
Sequence of Mitogen-activated protein kinase 8 (P45983 whole entry): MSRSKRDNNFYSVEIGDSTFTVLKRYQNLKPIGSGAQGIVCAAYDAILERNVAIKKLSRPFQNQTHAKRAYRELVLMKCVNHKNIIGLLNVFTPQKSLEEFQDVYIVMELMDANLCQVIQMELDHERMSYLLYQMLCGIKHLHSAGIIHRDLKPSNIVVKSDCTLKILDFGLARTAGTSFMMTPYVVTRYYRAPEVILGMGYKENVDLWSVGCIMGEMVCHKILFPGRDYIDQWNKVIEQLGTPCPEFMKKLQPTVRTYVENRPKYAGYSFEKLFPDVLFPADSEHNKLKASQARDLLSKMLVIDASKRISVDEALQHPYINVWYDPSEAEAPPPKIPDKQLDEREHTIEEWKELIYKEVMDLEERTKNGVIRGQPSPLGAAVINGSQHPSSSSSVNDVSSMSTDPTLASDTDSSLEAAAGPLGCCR

| SMILES | Ki [1] | Ki [2] | Ki [3] | Ki [4] | Ki [5] | Ki [6] | Ki (LIM domain kinase 1) | Ki [7] | Ki [8] | Ki (Activated CDC42 kinase 1) | Ki [9] | Ki [10] | Ki [11] | Ki [12] | Ki [13] |
| --- | --- | --- | --- | --- | --- | --- | --- | --- | --- | --- | --- | --- | --- | --- | --- |
| COc1ccc(C2=NNc3cccc4c(OC)ccc2c34)cc1OC | 0.316 µM (active) | > 3.16 µM (inactive) | 1 µM (active) | 0.794 µM (active) | > 5.01 µM (inactive) | 3.16 µM (active) | 0.0316 µM (active) | 1 µM (active) | > 3.16 µM (inactive) | 1.26 µM (active) | 0.251 µM (active) | > 6.31 µM (inactive) | 0.0631 µM (active) | 0.501 µM (active) | > 3.98 µM (inactive) |
| Cc1ccc(C)c(NC(=O)c2cc(-c3ccco3)nc3ccccc23)c1 | > 3.98 µM (inactive) | > 3.16 µM (inactive) | 0.316 µM (active) | 5.01 µM (active) | > 5.01 µM (inactive) | > 3.98 µM (inactive) | 0.316 µM (active) | 3.98 µM (active) | 1 µM (active) | > 3.98 µM (inactive) | 1.58 µM (active) | > 6.31 µM (inactive) | 0.398 µM (active) | 3.98 µM (active) | 3.16 µM (active) |
| CN1CCC(c2c(O)cc(O)c3c(=O)cc(-c4ccccc4Cl)oc23)C(O)C1 (stereo not given) | > 3.16 µM (inactive) | > 3.16 µM (inactive) | > 2.51 µM (inactive) | > 3.16 µM (inactive) | > 3.98 µM (inactive) | > 3.98 µM (inactive) | > 3.16 µM (inactive) | 0.794 µM (active) | > 2.51 µM (inactive) | > 3.98 µM (inactive) | 1 µM (active) | > 3.16 µM (inactive) | 1.26 µM (active) | > 3.98 µM (inactive) | > 3.98 µM (inactive) |
